Assay results taken from patent EP1377579B1 (Aventis Pharmaceuticals Inc., priority 2000, dated 2002).
Structures can show the parent of a compound that is named as a salt. Where two headings read alike, the source gives them in different places.

Columns and labels:
in vivo = settings: mouse, in vivo, iv, 3 mg/kg
cdk1/cyclin B = cdk1/cyclin B (Homo sapiens, UniProt P06493); test: Cyclin-dependent kinase assay, cdk1/cyclin B
PC-3 = test: In vitro proliferation assay (MTT), PC-3; type: cell-based, human; settings: value (SD, n) where given, read-out: PC-3 Prostate (IC50 µM)
Summary of the method: (§1)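 IC50 values come from absorbance at 570 nm after MTT staining of cells grown with compound for 3 days. Seeding density was 1000 to 2500 cells/well, depending on the line.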

cdk4/cyclin D1 = cdk4/cyclin D1 (Homo sapiens, UniProt P11802); test: Cyclin-dependent kinase assay, cdk4/cyclin D1; type: biochemical
cdk2/cyclin E = cdk2/cyclin E (Homo sapiens, UniProt P24941); test: Cyclin-dependent kinase assay, cdk2/cyclin E
MDA-MB-435 = test: In vitro proliferation assay (MTT), MDA-MB-435; type: cell-based, human; settings: value (SD, n) where given, read-out: MB-435 Breast (IC50 µM)
Summary of the method: as §1

[1] = CDK1 IC50, nM, Histone H1, 10 µM ATP
[2] = cyclin D1/cdk4, GST-pRb substrate, 10 µM ATP
[3] = CDK2 IC50, nM, GST-pRb substrate, 10 µM ATP
[4] = Homo sapiens, MDA-MB-435, MTT assay

Chain of cdk1/cyclin B (P06493 whole entry): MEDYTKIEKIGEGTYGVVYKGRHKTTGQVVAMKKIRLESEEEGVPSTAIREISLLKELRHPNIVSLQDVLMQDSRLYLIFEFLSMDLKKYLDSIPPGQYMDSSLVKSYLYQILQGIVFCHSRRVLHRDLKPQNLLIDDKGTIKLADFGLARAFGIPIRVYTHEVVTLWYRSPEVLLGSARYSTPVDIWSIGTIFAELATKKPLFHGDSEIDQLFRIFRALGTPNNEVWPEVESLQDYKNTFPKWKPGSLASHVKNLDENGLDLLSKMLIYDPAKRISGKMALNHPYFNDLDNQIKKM
Chain of cdk1/cyclin B (P14635 whole entry partner): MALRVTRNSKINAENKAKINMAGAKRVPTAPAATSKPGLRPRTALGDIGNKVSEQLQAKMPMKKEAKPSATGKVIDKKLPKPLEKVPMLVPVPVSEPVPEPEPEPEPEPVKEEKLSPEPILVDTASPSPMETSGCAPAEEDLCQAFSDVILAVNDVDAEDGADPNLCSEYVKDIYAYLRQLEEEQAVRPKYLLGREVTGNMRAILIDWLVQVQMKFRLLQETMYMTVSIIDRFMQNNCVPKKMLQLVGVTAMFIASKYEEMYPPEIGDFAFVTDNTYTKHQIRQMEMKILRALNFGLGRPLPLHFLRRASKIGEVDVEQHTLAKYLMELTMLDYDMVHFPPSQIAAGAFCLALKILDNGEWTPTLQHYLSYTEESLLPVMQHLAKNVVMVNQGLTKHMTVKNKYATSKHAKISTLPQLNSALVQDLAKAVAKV
Chain of cdk4/cyclin D1 (P11802 whole entry): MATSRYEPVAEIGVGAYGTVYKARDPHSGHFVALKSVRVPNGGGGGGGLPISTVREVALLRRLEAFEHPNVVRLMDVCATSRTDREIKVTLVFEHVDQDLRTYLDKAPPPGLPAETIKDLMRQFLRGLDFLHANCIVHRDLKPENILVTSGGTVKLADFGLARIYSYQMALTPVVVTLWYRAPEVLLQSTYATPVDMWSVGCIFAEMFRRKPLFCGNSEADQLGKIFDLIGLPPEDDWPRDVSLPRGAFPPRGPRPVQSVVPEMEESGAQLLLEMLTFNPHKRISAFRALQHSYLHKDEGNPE
Chain of cdk4/cyclin D1 (P24385 whole entry partner): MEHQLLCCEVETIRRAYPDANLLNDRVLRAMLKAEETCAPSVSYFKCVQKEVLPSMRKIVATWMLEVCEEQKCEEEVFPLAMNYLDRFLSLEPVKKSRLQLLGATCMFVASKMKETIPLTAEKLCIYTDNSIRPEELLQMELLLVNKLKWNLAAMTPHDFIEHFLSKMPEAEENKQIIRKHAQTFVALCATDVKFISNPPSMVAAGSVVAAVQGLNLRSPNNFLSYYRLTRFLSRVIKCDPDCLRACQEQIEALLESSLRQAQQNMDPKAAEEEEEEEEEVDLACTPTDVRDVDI

| AUC(0-inf) (in vivo) | Cmax (in vivo) | half-life (in vivo) | IC50 (cdk1/cyclin B; [1]) | IC50 (PC-3; Homo sapiens, PC-3, MTT assay) | IC50 (cdk4/cyclin D1; [2]) | IC50 (cdk2/cyclin E; [3]) | IC50 (MDA-MB-435; [4]) | Compound | IC50 (cdk1/cyclin B; read-out: CDK1 IC50, Histone H1, 10 µM ATP) | IC50 (PC-3; MTT assay) | IC50 (cdk4/cyclin D1) | IC50 (cdk2/cyclin E; read-out: CDK2 IC50, GST-pRb substrate, 10 µM ATP) | IC50 (MDA-MB-435; MTT assay) |
| --- | --- | --- | --- | --- | --- | --- | --- | --- | --- | --- | --- | --- | --- |
| 531 ng·h/mL | 512 ng/mL | 1.7 h |  |  |  |  |  | NC1CCC(Nc2nc(NCCCc3ccccc3)c3ncn(C4CCCC4)c3n2)CC1 (stereo not drawn) [MDL 107167] |  |  |  |  |  |
|  |  |  | 7 nM | 0.54 µM | 898 nM | 378 nM | 0.51 µM | N[C@H]1CC[C@H](Nc2nc(NC3CCN(C(=O)Nc4cc(C(F)(F)F)cc(C(F)(F)F)c4)CC3)c3ncn(C4CCCC4)c3n2)CC1 [compound 176, trans-4-[2-(4-Amino-cyclohexylamino)-9-cyclopentyl-9H-purin-6-ylamino]-piperidine-1-carboxylic acid (3,5-bis-trifluoromethyl-phenyl)-amide dihydrochloride] |  |  |  |  |  |
|  |  |  | 77 nM | 0.71 µM | 377 nM | 85 nM | 0.71 µM | CCCCCNC(=O)N1CCC(Nc2nc(N[C@H]3CC[C@H](N)CC3)nc3c2ncn3C2CCCC2)CC1 [compound 184, trans-4-[2-(4-Amino-cyclohexylamino)-9-cyclopentyl-9H-purin-6-ylamino]-piperidine-1-carboxylic acid pentylamide dihydrochloride] |  |  |  |  |  |
|  |  |  | 72 nM | 0.41 µM | 280 nM | 79 nM | 0.29 µM | CCCCCCNC(=O)N1CCC(Nc2nc(N[C@H]3CC[C@H](N)CC3)nc3c2ncn3C2CCCC2)CC1 [compound 185, trans-4-[2-(4-Amino-cyclohexylamino)-9-cyclopentyl-9H-purin-6-ylamino]-piperidine-1-carboxylic acid hexylamide dihydrochloride] |  |  |  |  |  |
|  |  |  | 14 nM | 0.5 µM | 170 nM | 31 nM | 0.48 µM | CC(=O)c1ccc(NC(=O)N2CCC(Nc3nc(N[C@H]4CC[C@H](N)CC4)nc4c3ncn4C3CCCC3)CC2)cc1 [compound 188, trans-4-[2-(4-Amino-cyclohexylamino)-9-cyclopentyl-9H-purin-6-ylamino]-piperidine-1-carboxylic acid (4-acetyl-phenyl)-amide dihydrochloride] |  |  |  |  |  |
|  |  |  | 20 nM | 1.37 µM | 66 nM | 28 nM | 1 µM | CC(=O)c1cccc(NC(=O)N2CCC(Nc3nc(N[C@H]4CC[C@H](N)CC4)nc4c3ncn4C3CCCC3)CC2)c1 [compound 189, trans-4-[2-(4-Amino-cyclohexylamino)-9-cyclopentyl-9H-purin-6-ylamino]-piperidine-1-carboxylic acid (3-acetyl-phenyl)-amide dihydrochloride] |  |  |  |  |  |
|  |  |  | 1000 nM | 1.89 µM | 400 nM | 237 nM | 1.49 µM | CC(C)(C)NC(=O)N1CCC(Nc2nc(N[C@H]3CC[C@H](N)CC3)nc3c2ncn3C2CCCC2)CC1 [compound 192, trans-4-[2-(4-Amino-cyclohexylamino)-9-cyclopentyl-9H-purin-6-ylamino]-piperidine-1-carboxylic acid tert-butyl-amide dihydrochloride] |  |  |  |  |  |
|  |  |  | 40 nM | 0.89 µM | 88 nM | 15 nM | 0.72 µM | N#Cc1cccc(NC(=O)N2CCC(Nc3nc(N[C@H]4CC[C@H](N)CC4)nc4c3ncn4C3CCCC3)CC2)c1 [compound 194, trans-4-[2-(4-Amino-cyclohexylamino)-9-cyclopentyl-9H-purin-6-ylamino]-piperidine-1-carboxylic acid (3-cyano-phenyl)-amide dihydrochloride] |  |  |  |  |  |
|  |  |  | 50 nM | 0.38 µM | 6 nM | 28 nM | 0.33 µM | CCOC(=O)c1cccc(NC(=O)N2CCC(Nc3nc(N[C@H]4CC[C@H](N)CC4)nc4c3ncn4C3CCCC3)CC2)c1 [compound 195, trans-3-[(1-{4-[2-(4-Amino-cyclohexylamino)-9-cyclopentyl-9H-purin-6-ylamino]-piperidin-1-yl} -methanoyl)-amino]-benzoic acid ethyl ester dihydrochloride] |  |  |  |  |  |
|  |  |  | 350 nM | 0.59 µM | 6 nM | 2 nM | 0.5 µM | Cc1cccc(Cl)c1NC(=O)N1CCC(Nc2nc(N[C@H]3CC[C@H](N)CC3)nc3c2ncn3C2CCCC2)CC1 [compound 196, trans-4-[2-(4-Amino-cyclohexylamino)-9-cyclopentyl-9H-purin-6-ylamino]-piperidine-1-carboxylic acid (2-chloro-6-methyl-phenyl)-amide dihydrochloride] |  |  |  |  |  |
|  |  |  | 200 nM | 1.09 µM | 381 nM | 8 nM | 0.91 µM | N[C@H]1CC[C@H](Nc2nc(NC3CCN(C(=O)NCCc4ccccc4)CC3)c3ncn(C4CCCC4)c3n2)CC1 [compound 197, trans-4-[2-(4-Amino-cyclohexylamino)-9-cyclopentyl-9H-purin-6-ylamino]-piperidine-1-carboxylic acid phenethyl-amide dihydrochloride] |  |  |  |  |  |
|  |  |  | 40 nM | 31.8 µM | 7 nM | 20 nM | 2.85 µM | COc1cc(NC(=O)N2CCC(Nc3nc(N[C@H]4CC[C@H](N)CC4)nc4c3ncn4C3CCCC3)CC2)cc(OC)c1OC [compound 198, trans-4-[2-(4-Amino-cyclohexylamino)-9-cyclopentyl-9H-purin-6-ylamino]-piperidine-1-carboxylic acid (3,4,5-trimethoxy-phenyl)-amide dihydrochloride] |  |  |  |  |  |
|  |  |  | 170 nM | 1.9 µM | 986 nM | 41 nM | 1.53 µM | N[C@H]1CC[C@H](Nc2nc(NC3CCN(C(=O)Nc4c(F)cccc4C(F)(F)F)CC3)c3ncn(C4CCCC4)c3n2)CC1 [compound 201, trans-4-[2-(4-Amino-cyclohexylamino)-9-cyclopentyl-9H-purin-6-ylamino]-piperidine-1-carboxylic acid (2-fluoro-6-trifluoromethyl-phenyl)-amide dihydrochloride] |  |  |  |  |  |
|  |  |  | 200 nM | 2.64 µM | 39 nM | 51 nM | 2.53 µM | CCCCNC(=O)N1CCC(Nc2nc(N[C@H]3CC[C@H](N)CC3)nc3c2ncn3C2CCCC2)CC1 [compound 204, trans-4-[2-(4-Amino-cyclohexylamino)-9-cyclopentyl-9H-purin-6-ylamino]-piperidine-1-carboxylic acid butylamide dihydrochloride] |  |  |  |  |  |
|  |  |  | 290 nM | 1.63 µM | 3250 nM | 232 nM | 1.84 µM | N[C@H]1CC[C@H](Nc2nc(NC3CCN(C(=O)NC4CCCCC4)CC3)c3ncn(C4CCCC4)c3n2)CC1 [compound 205, trans-4-[2-(4-Amino-cyclohexylamino)-9-cyclopentyl-9H-purin-6-ylamino]-piperidine-1-carboxylic acid cyclohexylamide dihydrochloride] |  |  |  |  |  |
|  |  |  | 210 nM | 2.89 µM | 85 nM | 7 nM | 2.68 µM | CCCNC(=O)N1CCC(Nc2nc(N[C@H]3CC[C@H](N)CC3)nc3c2ncn3C2CCCC2)CC1 [compound 206, trans-4-[2-(4-Amino-cyclohexylamino)-9-cyclopentyl-9H-purin-6-ylamino]-piperidine-1-carboxylic acid propylamide dihydrochloride] |  |  |  |  |  |
|  |  |  | 180 nM | 0.68 µM | 73 nM | 8 nM | 0.47 µM | Cc1ccccc1NC(=O)N1CCC(Nc2nc(N[C@H]3CC[C@H](N)CC3)nc3c2ncn3C2CCCC2)CC1 [compound 208, trans-4-[2-(4-Amino-cyclohexylamino)-9-cyclopentyl-9H-purin-6-ylamino]-piperidine-1-carboxylic acid (2-methyl-phenyl)-amide dihydrochloride] |  |  |  |  |  |
|  |  |  | 197 nM | 0.56 µM | 7000 nM | 612 nM | 0.69 µM | CC(C)n1cnc2c(NC3CCN(C(=O)Nc4ccc(OC(F)(F)F)cc4)CC3)nc(N[C@H]3CC[C@H](N)CC3)nc21 [compound 211, trans-4-[2-(4-Amino-cyclohexylamino)-9-isopropyl-9H-purin-6-ylamino]-piperidine-1-carboxylic acid (4-trifluoromethoxy-phenyl)-amide dihydrochloride] |  |  |  |  |  |
|  |  |  |  |  |  |  |  | trans 1-{4-[2-(4-Amino-cyclohexylamino)-9-cyclopentyl-9H-purin-6-ylamino]-piperidin-1-yl}-3-(2,5-dimethoxy-phenyl)-propan-1-one dihydrochloride [compound 34] | 31 nM | 0.67 µM | 997 nM | 58 nM | 0.69 µM |
